Laboratory results taken from ChEMBL document CHEMBL1157877, “Design, synthesis and biological evaluation of new ionone derivatives as potential neuroprotective agents in cerebral ischemia” (2010).

Tests used:
Type in all cases: functional
Neuron [1] = assay: Neuroprotective effect against H202-induced Sprague-Dawley rat neuron injury assessed as early apoptic cells by annexin V-propidium iodide staining by flow cytometry (reference value: 3.09% +/- 1.40%)
Neuron [2] = assay: Neuroprotective effect against H202-induced Sprague-Dawley rat neuron injury assessed as apoptic cells by annexin V-propidium iodide staining by flow cytometry; set-up: concentration or dose not given beside the values
Neuron [3] = assay: Neuroprotective effect against H202-induced Sprague-Dawley rat neuron injury assessed as necrotic cells by annexin V-propidium iodide staining by flow cytometry (reference value: 1.02% +/-0.4%)
Neuron [4] = assay: Neuroprotective effect against H202-induced Sprague-Dawley rat neuron injury assessed as late apoptic cells by annexin V-propidium iodide staining by flow cytometry (Rvb= 2.22%+/-0.70%)
Neuron [5] = assay: Neuroprotective effect against H202-induced Sprague-Dawley rat neuron injury assessed as viable cells by annexin V-propidium iodide staining by flow cytometry (reference value: 93.66%+/-2.19%)
Neuron [6] = assay: Neuroprotective effect against H202-induced Sprague-Dawley rat neuron injury assessed as cell viability by annexin V-propidium iodide staining by flow cytometry

| SMILES | Activity (Neuron [1]) [%] | Activity (Neuron [2]) [%] | Activity (Neuron [3]) [%] | Activity (Neuron [4]) [%] | Activity (Neuron [5]) [%] | Activity (Neuron [6]) [%] |
| --- | --- | --- | --- | --- | --- | --- |
| CC1=CCCC(C)(C)C1/C=C/C(C)(O)c1ccccc1 (stereo unspecified) | 62.9 | 62.9 | 0.05 | 30.47 | 6.5 | – |
| C[C@]12N[C@H](Cc3ccccc31)c1ccccc12.O=C(O)/C=C\C(=O)O [DIZOCILPINE MALEATE] | 14.9 | – | 1.96 | 1.56 | 82.45 | – |
| CC1=CCCC(C)(C)C1/C=C/C(C)(O)c1ccsc1 (stereo unspecified) | 50.9 | 50.9 | 0.025 | 42.09 | 6.8 | – |
| CCCOc1ccc(C(C)(O)/C=C/C2=C(C)CCCC2(C)C)cc1 (stereo unspecified) | 53.84 | – | 0.52 | 16.6 | 29 | – |
| CCCCCOc1ccc(C(C)(O)/C=C/C2=C(C)CCCC2(C)C)cc1 (stereo unspecified) | 26.48 | – | 0.26 | 4.02 | 69.25 | – |
| CC1=CCCC(C)(C)C1/C=C/C(C)(O)c1ccc(C(F)(F)F)cc1 (stereo unspecified) | 72.6 | 72.6 | 0.057 | 22.23 | 5.09 | – |
| CSc1ccc(C(C)(O)/C=C/C2C(C)=CCCC2(C)C)cc1 (stereo unspecified) | 50.55 | – | 0.58 | 15.43 | 33.43 | – |
| CCOc1ccc(C(C)(O)/C=C/C2=C(C)CCCC2(C)C)cc1 (stereo unspecified) | 50.34 | – | 0.93 | 15.62 | 33.1 | – |
| COc1ccc(C(C)(O)/C=C/C2=C(C)CCCC2(C)C)cc1 (stereo unspecified) | 12.2 | – | 3.42 | 9.06 | 75.25 | 75.25 |
| COc1ccc(C(C)(O)/C=C/C2C(C)=CCCC2(C)C)cc1 (stereo unspecified) | 41.37 | – | 1.14 | 19.72 | 37.75 | – |
| CC1=CCCC(C)(C)C1/C=C/C(C)(O)c1ccc(C(C)(C)C)cc1 (stereo unspecified) | 62.1 | 62.1 | 0.05 | 30.4 | 7.36 | – |
| COc1ccc(C(C)(O)/C=C/C2C(C)=CCCC2(C)C)cc1OC (stereo unspecified) | 57.36 | 57.36 | 0.065 | 38.5 | 3.9 | – |
| COc1cccc(C(C)(O)/C=C/C2=C(C)CCCC2(C)C)c1 (stereo unspecified) | 4.95 | – | 7.39 | 5.35 | 82.3 | – |
| COc1ccccc1C(C)(O)/C=C/C1C(C)=CCCC1(C)C (stereo unspecified) | 39.8 | – | 0.42 | 15.2 | 44.4 | – |
| CCCOc1ccc(C(C)(O)/C=C/C2C(C)=CCCC2(C)C)cc1 (stereo unspecified) | 4.31 | – | 3 | 0.7 | 91.9 | – |
| CC1=CCCC(C)(C)C1/C=C/C(C)(O)c1cc(C)ccc1C (stereo unspecified) | 55.1 | 55.1 | 0.045 | 38.3 | 6.4 | – |
| CCOc1ccc(C(C)(O)/C=C/C2C(C)=CCCC2(C)C)cc1 (stereo unspecified) | 31.4 | – | 1.32 | 16.3 | 50.8 | – |
| COc1cc(/C=C/C(=O)CC(=O)/C=C/c2ccc(O)c(OC)c2)ccc1O [CURCUMIN] | 24.15 | – | 1.89 | 7.3 | 79.9 | – |
| COc1ccccc1C(C)(O)/C=C/C1=C(C)CCCC1(C)C (stereo unspecified) | 66.1 | – | 0.32 | 14.5 | 19 | – |
| CSc1ccc(C(C)(O)/C=C/C2=C(C)CCCC2(C)C)cc1 (stereo unspecified) | 30.89 | – | 0.21 | 2.5 | 66.4 | – |
| COc1cccc(C(C)(O)/C=C/C2C(C)=CCCC2(C)C)c1 (stereo unspecified) | 25.02 | – | 3.89 | 9.4 | 61.7 | 61.7 |
| CCCCCOc1ccc(C(C)(O)/C=C/C2C(C)=CCCC2(C)C)cc1 (stereo unspecified) | 25.77 | – | 0.61 | 12.7 | 60.91 | – |
